According to patent US20230181493A1, “BIOMARKERS RELATED TO PARKINSON'S DISEASE AND METHODS OF USING THE SAME” (SENDA BIOSCIENCES, INC., priority 2020, published 2023):
Each block holds one compound with its values, some of them ahead of it.

Columns and labels:
[1] = system: microbial enzyme TDC in the rat microbiome; experiment: In vivo metabolism of levodopa: levodopa in circulation after inhibition of microbial TDC; details: oral gavage, whole blood, LC-MS/MS
From the text: The microbial enzyme TDC in the rat microbiome was inhibited with alpha-fluoromethyltyrosine (AFMT). On day 0, male Sprague Dawley rats were prophylactically treated with single oral gavage of vehicle, carbidopa, carbidopa+S-AFMT, or carbidopa+R-AFMT, respectively. On day 1, solutions of levodopa, carbidopa, S-AFMT in 1% methyl cellulose (w/v), and 1% ascorbic acid (w/w) in deionized (DI) water were applied by oral gavage to male Sprague Dawley rats.
Whole blood samples were drawn and levodopa concentrations were determined by LC-MS/MS at 0, 5, 10, 15, 30, 45, 90, and 180 min post-application (12 animals per time point).

[2] = carbidopa administered with levodopa; cited from earlier work
[3] = molecular target: T1, Tyrosine decarboxylase (tdc) (Enterococcus faecalis, UniProt P0DTQ4); experiment: Inhibition of tyrosine decarboxylase in vitro; type: biochemical; details: 60 min preincubation of tdc with inhibitor at room temperature; dopamine formed from levodopa, LC-MS
T1 construct: made in house
T1 sequence (P0DTQ4 1-620): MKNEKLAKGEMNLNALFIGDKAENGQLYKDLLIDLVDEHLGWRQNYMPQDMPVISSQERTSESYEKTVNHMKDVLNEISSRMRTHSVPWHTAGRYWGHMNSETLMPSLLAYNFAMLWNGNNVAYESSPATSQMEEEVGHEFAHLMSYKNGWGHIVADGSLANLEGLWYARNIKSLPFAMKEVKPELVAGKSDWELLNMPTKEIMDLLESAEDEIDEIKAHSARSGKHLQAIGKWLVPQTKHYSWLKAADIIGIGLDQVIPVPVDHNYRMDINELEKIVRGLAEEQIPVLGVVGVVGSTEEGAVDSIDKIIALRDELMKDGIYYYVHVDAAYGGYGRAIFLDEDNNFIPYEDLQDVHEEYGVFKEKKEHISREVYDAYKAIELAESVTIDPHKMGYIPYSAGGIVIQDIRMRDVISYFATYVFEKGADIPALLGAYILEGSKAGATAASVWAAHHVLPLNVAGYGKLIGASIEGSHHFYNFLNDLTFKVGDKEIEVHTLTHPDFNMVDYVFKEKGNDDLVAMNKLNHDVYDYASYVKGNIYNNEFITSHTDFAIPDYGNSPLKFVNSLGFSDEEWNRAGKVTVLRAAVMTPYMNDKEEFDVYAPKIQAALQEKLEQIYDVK
Description: Tyrosine decarboxylase (tdc) was obtained by following a previously published literature procedure (Rekdal et al., Science 2019; 364(6445):eaau6323). The tdc (220 nM final concentration) was thawed on ice and then mixed with pyridoxal-5-phosphate (2.2 mM final concentration) in 200 mM sodium acetate buffer, pH 5.5 optionally containing 1 mM TCEP. To this mixture was added inhibitor at a final concentration of 1000, 333, 111, 37, 12, 4.1, 1.4, or 0 μM (final volume: 100 μL; inhibitor was 100-fold concentrated in a solution of DMSO, H2O, or DMSO:H2O (1/1 v/v)). The protein-inhibitor mixture was incubated at room temperature for 60 min. 6 μL of this mixture was then withdrawn from each solution and mixed with 54 μL of 10 mM levodopa in 200 mM sodium acetate buffer pH 5.5. The final concentration of the reaction was 22 nM tdc, 220 μM pyridoxal-5-phosphate, 9 mM levodopa in 200 mM sodium acetate buffer pH 5.5 with 0-100 μM inhibitor. The reaction proceeded for 5 min at room temperature before being quenched by the addition of 540 μL acetonitrile containing 0.1% (v/v) formic acid supplemented with 200 nM tolbutamide as an internal standard. The reactions were centrifuged (3,000 g, 10 min), and then 100 μL of each supernatant was transferred to a fresh plate. 100 μL of acetonitrile containing 0.1% (v/v) formic acid supplemented with 200 nM tolbutamide was added. An external standard curve containing 0-150 μM dopamine was prepared in the exact same manner.
Dopamine formed in each reaction was quantified by using an Agilent 6470 triple quadrupole mass spectrometer equipped with an Acquity UPLC. Mobile phase A consisted of H2O containing 10 mM ammonium formate, pH 3.0 and supplemented with 0.1% (v/v) formic acid. Mobile phase B consisted of acetonitrile containing 10 mM ammonium formate, pH 3.0 and supplemented with 0.1% (v/v) formic acid. 5 μL of each sample was injected onto a BEH Amide column (Waters Corporation, 2.1×50 mm, 1.7 μm). The gradient was set to: 100% mobile phase B at 0 min, decreasing linearly to 65% mobile phase B by 1.5 min, held constant at 65% mobile phase B until 2.5 min, ramped back up to 100% mobile phase B by 2.6 min, and held constant at 100% mobile phase B until 4.2 min. The flow rate was 0.6 mL/min. The dopamine was detected by using the mass spectrometer in multiple reaction monitoring (MRM) mode, quantifying the transition 154.1 to 137.0 m/z in positive mode. The fragmentor setting was 74, the collision energy was 9, and the cell accelerator voltage was 4, and the dwell time was 20. Tolbutamide was monitored using MRM and quantifying the transition of 271.1 to 91.0 m/z in positive mode. The fragmentor setting was 88, the collision energy was 37, and the cell accelerator voltage was 4, and the dwell time was 20.
The amount of dopamine was quantified by normalizing the area to the area of tolbutamide internal standard within each sample. This relative response was then compared to that of the standard curve to obtain the dopamine formed within each sample. The concentration of dopamine formed as a function of the inhibitor concentration at the preincubation stage was plotted in GraphPad Prism 8, and the IC50 was calculated using the non-linear fit for the standard IC50 curve equation “[inhibitor] vs response (three parameters).”

E. faecalis v583 = experiment: Inhibition of Enterococcus faecalis decarboxylation activity in vitro; type: cell-based; details: levodopa remaining in E. faecalis v583 culture, BHI broth pH 5, 1.5 mM levodopa, 24 h at 37° C., anaerobic, read-out: IC50 @ 60 min
Description: A vial of 200 μL of E. faecalis v583 was removed from a −80° C. freezer and thawed in an anaerobic chamber containing an atmosphere of either 95/5 N2/H2 (v/v) or 90/5/5 N2/H2/CO2 (v/v). 200 μL was inoculated into 10 mL of sterile, anaerobic BHI broth, pH 5 (adjusted with NaOH). The culture was grown overnight at 37° C. under anaerobic conditions.
After overnight incubation, 40 μL of the saturated starter culture was mixed with 744 μL of sterile, anaerobic BHI broth, pH 5 that had been supplemented with 1.5 mM levodopa. To this was added 16 μL of a 50-fold concentrated stock solution of inhibitor that had been dissolved in either DMSO, H2O, or DMSO:H2O (1:1 v/v). The final concentration of the inhibitor in each condition was 0, 0.001, 0.01, 0.1, 1, 10, or 100 μM. The contents of each incubation were mixed, and then 100 μL was transferred into a fresh 96-well plate. […]
The samples were analyzed by using an Agilent 6470 triple quadrupole mass spectrometer equipped with an Acquity UPLC. […] The levodopa was detected by using the mass spectrometer in multiple reaction monitoring (MRM) mode, quantifying the transition 198.1 to 151.9 m/z in positive mode. […] Tolbutamide was monitored using MRM and quantifying the transition of 271.1 to 91.0 m/z in positive mode. […]
The amount of levodopa was quantified by normalizing the area to the area of tolbutamide internal standard within each sample. […]

Description for hepatocytes: In a 50 mL falcon tube, 40 mL of Gibco hepatocyte thawing medium was added. The remaining 10 mL of medium was used to gently transfer hepatocytes into a falcon tube using a wide-mouth pipette. The mixture was centrifuged briefly at low speed (100 g for 30 sec) to gather cells at the base of the tube. The supernatant was removed from the tube then bleached and the liquid discarded, leaving behind the cell pellet in the tube. About 4 mL of Gibco Williams E phenol-free medium was added to the tube to get a final count of 1 mil/mL, tilting gently by hand to scatter the cell pellet. […] Count was repeated twice and averaged to calculate the concentration in solution. Count of 1.2 mil/mL was found, and another 800 μL of incubation medium was added to the tube to bring the count to 1 mil/mL. Four wells of a 24 well plate were plated with 1 mL per well, and the plate was gently agitated to distribute a uniform number of cells per well. The plate was pre-incubated for about 10 min at 37° C. […] The plates were agitated to distribute compounds, then 200 μL aliquots were taken from each well and treated with an equal volume of ice-cold acetonitrile to quench catalysis and monitor progress. The quenching and sampling procedure was repeated at 4 h for 4-h samples. The quenched samples were centrifuged at 4000 g for 10 min at 4° C. and the supernatants were saved for analysis.

Compound: N[C@@](CF)(Cc1ccc(O)cc1)C(=O)O [AFMT, alpha-fluoromethyltyrosine]
levels of levodopa at the earliest timepoint assessed [1]: elevated levels of levodopa at the earliest timepoint assessed

Compound: CC(Cc1ccc(O)c(O)c1)(NN)C(=O)O (single isomer, unassigned; (-)) [carbidopa, (−)-L-α-hydrazino-α-methyl-β-(3,4-dihydroxybenzene) propanoic acid monohydrate]
reduction of the amount of levodopa required to produce a given response [2]: about 75%

Compound: NC(CF)(Cc1cccc(O)c1)C(=O)O (stereo not shown) [Compound R, 2-amino-3-fluoro-2-(3-hydroxybenzyl)propanoic acid]
IC50 @ 60 min [3]: Minor inhibition

Compound: NC(Cc1ccc(O)cc1)(C(=O)O)C(F)F (stereo not shown) [Compound K, 2-amino-3,3-difluoro-2-(4-hydroxybenzyl)propanoic acid]
IC50 @ 60 min [3]: Minor inhibition

Compound: NCCc1cccc(O)c1 [meta-tyramine]
metabolites produced by hepatocytes (hepatocytes): metabolic derivatives of meta-tyramine (e.g., 3-hydroxyphenylacetic acid and meta-tyramine-O-sulfate) were produced

More lines, now with the values ahead:

IC50 [3]: > 1000 µM
Compound: COc1ccc(CCC(N)(CF)C(=O)O)cc1 (stereo not shown) [Compound U, 2-amino-2-(fluoromethyl)-4-(4-methoxyphenyl)butanoic acid]

IC50 (E. faecalis v583): 18.5 µM
IC50 [3]: 82.3 µM
Compound: N[C@](CF)(Cc1ccc(O)cc1)C(=O)O [T, (R)-2-amino-3-fluoro-2-(4-hydroxybenzyl)propanoic acid]

IC50 (E. faecalis v583): 2 µM
IC50 [3]: 4 µM
Compound: N[C@@](CF)(Cc1ccc(O)cc1)C(=O)O [S, (S)-2-amino-3-fluoro-2-(4-hydroxybenzyl)propanoic acid]
